Article PMC10251843 (Animals : an Open Access Journal from MDPI, 2023)
Marks after values point to notes of the source that are not given here.

Key:
Conditions in all cases: mean ± SD
plasma protein [1] = experiment: Plasma protein binding ratio (PPBR) by ultrafiltration, grass carp plasma; type: in vitro ADME, grass carp (Ctenopharyngodon idella)
Experimental: (§1) The detailed procedures and the pretreatment of the ultrafiltration unit (UFU) were in line with the previous reports. In brief, the nonspecific absorption (NSB) of UFU was first checked before and after pretreatment of 5% Tween 80. […] Firstly, 100 μL of the sample was used to evaluate the initial concentration before centrifugation. […] To reduce the NSB of UFU, 100 μL of 5% Tween 80 was used to treat UFU at 25 °C for 5 min, and 0.5 mL of physiological saline was used to wash off Tween 80. The NSB of UFU was repeatedly determined again in light of the above-mentioned method.
(§2) The samples of sterile physiological saline were detected without extraction by HPLC. As for the samples of plasma, 0.1 mL of plasma was decanted into a 10 mL centrifugation tube. The extraction method is the same as the reported literature.
(§3) The proportion of the mobile phase was 82:18 (water containing 0.2% formic acid and pure acetonitrile, v/v), following the flow rate of 0.8 mL/min. The excitation wavelength was 280 nm. The emission wavelength was 450 nm.

plasma protein [2] = experiment: Plasma protein binding ratio (PPBR) by ultrafiltration, yellow catfish plasma; type: in vitro ADME, yellow catfish (Pelteobagrus fulvidraco)
Experimental: as §1, §2, §3

plasma protein [3] = experiment: Plasma protein binding ratio (PPBR) by ultrafiltration, largemouth bass plasma; type: in vitro ADME, largemouth bass (Micropterus salmoides)
Experimental: as §1, §2, §3

[4] = 1 μg/mL, 15 °C, n = 3, listed as EF
[5] = 1 μg/mL, 25 °C, n = 3, listed as Enrofloxacin
[6] = 5 μg/mL, 15 °C, n = 3, listed as Enrofloxacin
[7] = 5 μg/mL, 25 °C, n = 3, listed as Enrofloxacin
[8] = 10 μg/mL, 15 °C, n = 3, listed as EF
[9] = 10 μg/mL, 15 °C, n = 3, listed as Enrofloxacin
[10] = 10 μg/mL, 20 °C, n = 3, listed as Enrofloxacin
[11] = 10 μg/mL, 25 °C, n = 3, listed as Enrofloxacin
[12] = 5 μg/mL, 20 °C, n = 3, listed as Enrofloxacin

CCN1CCN(c2cc3c(cc2F)c(=O)c(C(=O)O)cn3C2CC2)CC1 [Enrofloxacin (EF), Enrofloxacin]
PPBRs (%) (plasma protein [1]; 1 μg/mL, 15 °C, n = 3): 60.52 ± 0.99 ^a %
PPBRs (%) (plasma protein [1]; [4]): 60.52%
PPBRs (%) (plasma protein [1]; 1 μg/mL, 20 °C, n = 3): 51.27 ± 1.56 ^a %
PPBRs (%) (plasma protein [1]; 1 μg/mL, 20 °C, n = 3, listed as Enrofloxacin): 51.27 ± 1.56 ^b %
PPBRs (%) (plasma protein [1]; 1 μg/mL, 25 °C, n = 3): 50.09 ± 2.06 ^a %
PPBRs (%) (plasma protein [1]; [5]): 50.09 ± 2.06 ^b %
PPBRs (%) (plasma protein [1]; 5 μg/mL, 15 °C, n = 3): 33.77 ± 0.07 ^B %
PPBRs (%) (plasma protein [1]; [6]): 33.77 ± 0.07 ^a %
PPBRs (%) (plasma protein [1]; 5 μg/mL, 20 °C, n = 3): 22.07 ± 1.19 ^B %
PPBRs (%) (plasma protein [1]; 5 μg/mL, 25 °C, n = 3): 23.36 ± 3.86 ^B %
PPBRs (%) (plasma protein [1]; [7]): 23.36 ± 3.86 ^a %
PPBRs (%) (plasma protein [1]; 10 μg/mL, 15 °C, n = 3): 16.95 ± 1.81 ^C %
PPBRs (%) (plasma protein [1]; [8]): 16.95%
PPBRs (%) (plasma protein [1]; [9]): 16.95 ± 1.81 ^a %
PPBRs (%) (plasma protein [1]; 10 μg/mL, 20 °C, n = 3): 8.34 ± 2.29 ^C %
PPBRs (%) (plasma protein [1]; [10]): 8.34 ± 2.29 ^b %
PPBRs (%) (plasma protein [1]; 10 μg/mL, 25 °C, n = 3): 5.52 ± 1.99 ^C %
PPBRs (%) (plasma protein [1]; [11]): 5.52 ± 1.99 ^B %
PPBRs (%) (plasma protein [2]; 1 μg/mL, 20 °C, n = 3): 46.10 ± 3.13 ^a %
PPBRs (%) (plasma protein [2]; 1 μg/mL, 20 °C, n = 3, listed as EF): 46.10%
PPBRs (%) (plasma protein [2]; 1 μg/mL, 25 °C, n = 3): 43.90 ± 3.62 ^a %
PPBRs (%) (plasma protein [2]; 1 μg/mL, 25 °C, n = 3, listed as EF): 43.9%
PPBRs (%) (plasma protein [2]; [5]): 43.90 ± 3.62 ^ab %
PPBRs (%) (plasma protein [2]; 5 μg/mL, 15 °C, n = 3): 22.53 ± 6.86 ^b %
PPBRs (%) (plasma protein [2]; 5 μg/mL, 15 °C, n = 3, listed as EF): 22.53%
PPBRs (%) (plasma protein [2]; [6]): 22.53 ± 6.86 ^a %
PPBRs (%) (plasma protein [2]; 5 μg/mL, 20 °C, n = 3): 21.24 ± 6.93 ^b %
PPBRs (%) (plasma protein [2]; [12]): 21.24 ± 6.93 ^a %
PPBRs (%) (plasma protein [2]; 5 μg/mL, 25 °C, n = 3): 17.29 ± 0.69 ^b %
PPBRs (%) (plasma protein [2]; 5 μg/mL, 25 °C, n = 3, listed as EF): 17.29%
PPBRs (%) (plasma protein [2]; [7]): 17.29 ± 0.69 ^a %
PPBRs (%) (plasma protein [2]; 10 μg/mL, 15 °C, n = 3): 9.66 ± 4.09 ^c %
PPBRs (%) (plasma protein [2]; [8]): 9.66%
PPBRs (%) (plasma protein [2]; [9]): 9.66 ± 4.09 ^ab %
PPBRs (%) (plasma protein [2]; 10 μg/mL, 20 °C, n = 3): 13.52 ± 4.74 ^b %
PPBRs (%) (plasma protein [2]; 10 μg/mL, 20 °C, n = 3, listed as EF): 13.52%
PPBRs (%) (plasma protein [2]; [10]): 13.52 ± 4.74 ^a %
PPBRs (%) (plasma protein [2]; 10 μg/mL, 25 °C, n = 3): 4.36 ± 0.58 ^c %
PPBRs (%) (plasma protein [2]; 10 μg/mL, 25 °C, n = 3, listed as EF): 4.36%
PPBRs (%) (plasma protein [2]; [11]): 4.36 ± 0.58 ^b %
PPBRs (%) (plasma protein [3]; 1 μg/mL, 15 °C, n = 3): 35.11 ± 5.18 ^a %
PPBRs (%) (plasma protein [3]; [4]): 35.11%
PPBRs (%) (plasma protein [3]; 1 μg/mL, 20 °C, n = 3): 37.93 ± 6.11 ^a %
PPBRs (%) (plasma protein [3]; 1 μg/mL, 25 °C, n = 3): 39.12 ± 1.72 ^a %
PPBRs (%) (plasma protein [3]; 5 μg/mL, 15 °C, n = 3): 14.39 ± 0.61 ^b %
PPBRs (%) (plasma protein [3]; [6]): 14.39 ± 0.61 ^a %
PPBRs (%) (plasma protein [3]; 5 μg/mL, 20 °C, n = 3): 17.46 ± 2.82 ^b %
PPBRs (%) (plasma protein [3]; [12]): 17.46 ± 2.82 ^ab %
PPBRs (%) (plasma protein [3]; 5 μg/mL, 25 °C, n = 3): 23.20 ± 5.87 ^b %
PPBRs (%) (plasma protein [3]; 10 μg/mL, 15 °C, n = 3): 9.30 ± 5.15 ^C %
PPBRs (%) (plasma protein [3]; [8]): 9.30%
PPBRs (%) (plasma protein [3]; [9]): 9.30 ± 5.15 ^a %
PPBRs (%) (plasma protein [3]; 10 μg/mL, 20 °C, n = 3): 10.84 ± 1.08 ^C %
PPBRs (%) (plasma protein [3]; [10]): 10.84 ± 1.08 ^a %
PPBRs (%) (plasma protein [3]; 10 μg/mL, 25 °C, n = 3): 7.77 ± 2.10 ^C %
PPBRs (%) (plasma protein [3]; [11]): 7.77 ± 2.10 ^a %
